Source: patent publication US20230265116A1, “DEGRADATION OF (EGFR) BY CONJUGATION OF EGFR INHIBITORS WITH E3 LIGASE LIGAND AND METHODS OF USE” (BEIGENE, LTD., priority 2020, published 2023)
Where a name gives a salt, the structure may show the parent alone.

Key:
Format in all cases: cell-based
[1] = tested on: EGFR Del19/T790M/C797S (BaF3-DTC cells); assay: EGFR degradation HTRF assay, BaF3-DTC cells; details: 16h treatment; for DTC Dmax (%): maximum percentage of degradation; for DC50: read-out: DTC DC50
Method in brief: (§1)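 Cells treated 16 h at 37 °C, 5% CO2 in medium with 0.2% DMSO; top final concentration 10 uM, 5-fold dilution, 8 doses. Lysates read by HTRF (665/620 nm); degradation % versus DMSO high control, DC50 from four-parameter fit, Dmax as maximal degradation.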

[2] = target: T1, EGFR L858R/T790M/C797S (BaF3-LTC cells) (Homo sapiens, UniProt P00533, C797S/L858R/T790M); assay: EGFR degradation HTRF assay, BaF3-LTC cells; details: BaF3-LTC, 16h treatment; for Dmax: maximum percentage of degradation, read-out: LTC Dmax (%); for DC50: read-out: LTC DC50
T1 construct: expressed in transfected cells; host or cells: BaF3
Method in brief: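 EGFR remaining after a 16 h, 37 °C exposure (8 doses, 5-fold steps from 10 uM final, 0.2% DMSO) was quantified by HTRF antibodies in cell lysate. Percent inhibition relative to DMSO control was fitted by four-parameter logistic to give DC50; Dmax denotes maximal degradation.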

[3] = target: T2, EGFR L858R/T790M (H1975-clone #36, homozygous) (Homo sapiens, UniProt P00533, L858R/T790M); assay: EGFR degradation HTRF assay, H1975-clone #36 cells; details: H1975 #36, 16h treatment; for Dmax: NCI-H1975, maximum percentage of degradation
T2 construct: designed to specifically target WT EGFR but preserve the L858R/T790M copy; host or cells: H1975-clone #36
Method in brief: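 Eight-point, 5-fold series starting at 10 uM (0.2% DMSO) applied for 16 h, 37 °C, to a WT-EGFR-knockout H1975 clone carrying only L858R/T790M. Lysates read by HTRF overnight. Degradation percentage relative to DMSO control fitted for DC50, with Dmax as maximum degradation.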

[4] = target: T3, EGFR (HCC827 cells) (Homo sapiens, UniProt P00533, DEL746-750); assay: EGFR degradation HTRF assay, HCC827 cells; details: HCC827, 16h treatment; for Dmax: maximum percentage of degradation
T3 construct: endogenous in cells; host or cells: HCC827
Method in brief: as §1

T3 sequence (P00533 with tags, fused parts or gaps DEL746-750): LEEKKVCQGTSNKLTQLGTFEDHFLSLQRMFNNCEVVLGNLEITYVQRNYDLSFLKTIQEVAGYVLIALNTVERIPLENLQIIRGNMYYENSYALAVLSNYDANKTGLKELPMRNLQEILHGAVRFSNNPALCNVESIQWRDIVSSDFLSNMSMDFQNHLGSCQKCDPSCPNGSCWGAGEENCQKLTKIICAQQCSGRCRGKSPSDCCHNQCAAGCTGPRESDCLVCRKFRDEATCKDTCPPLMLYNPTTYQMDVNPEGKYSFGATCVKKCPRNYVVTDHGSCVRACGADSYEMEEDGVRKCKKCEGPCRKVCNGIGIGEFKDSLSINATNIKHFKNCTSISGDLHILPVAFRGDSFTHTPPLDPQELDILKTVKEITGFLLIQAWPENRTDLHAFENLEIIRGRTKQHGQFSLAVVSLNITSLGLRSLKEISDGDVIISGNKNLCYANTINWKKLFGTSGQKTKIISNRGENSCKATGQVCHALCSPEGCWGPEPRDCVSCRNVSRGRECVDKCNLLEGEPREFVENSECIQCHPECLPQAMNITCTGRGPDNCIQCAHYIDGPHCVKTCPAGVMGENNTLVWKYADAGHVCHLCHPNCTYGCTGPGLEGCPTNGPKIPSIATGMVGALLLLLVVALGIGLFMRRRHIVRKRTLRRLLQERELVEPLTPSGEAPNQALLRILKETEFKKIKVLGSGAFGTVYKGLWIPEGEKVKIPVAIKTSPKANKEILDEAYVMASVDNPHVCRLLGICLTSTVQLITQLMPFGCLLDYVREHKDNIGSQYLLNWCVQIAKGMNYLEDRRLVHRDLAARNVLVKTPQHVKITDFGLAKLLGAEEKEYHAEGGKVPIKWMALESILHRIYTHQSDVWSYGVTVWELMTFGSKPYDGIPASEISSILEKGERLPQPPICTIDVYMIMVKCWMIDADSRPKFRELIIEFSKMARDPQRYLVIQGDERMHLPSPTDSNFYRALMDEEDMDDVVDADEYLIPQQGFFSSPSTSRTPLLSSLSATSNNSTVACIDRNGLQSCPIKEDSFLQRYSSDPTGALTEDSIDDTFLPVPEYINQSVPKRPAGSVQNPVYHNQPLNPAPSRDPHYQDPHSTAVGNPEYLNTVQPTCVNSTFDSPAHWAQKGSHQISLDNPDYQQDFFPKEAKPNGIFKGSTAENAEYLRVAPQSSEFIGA
T1 sequence (P00533 25-1210 T790M/C797S/L858R): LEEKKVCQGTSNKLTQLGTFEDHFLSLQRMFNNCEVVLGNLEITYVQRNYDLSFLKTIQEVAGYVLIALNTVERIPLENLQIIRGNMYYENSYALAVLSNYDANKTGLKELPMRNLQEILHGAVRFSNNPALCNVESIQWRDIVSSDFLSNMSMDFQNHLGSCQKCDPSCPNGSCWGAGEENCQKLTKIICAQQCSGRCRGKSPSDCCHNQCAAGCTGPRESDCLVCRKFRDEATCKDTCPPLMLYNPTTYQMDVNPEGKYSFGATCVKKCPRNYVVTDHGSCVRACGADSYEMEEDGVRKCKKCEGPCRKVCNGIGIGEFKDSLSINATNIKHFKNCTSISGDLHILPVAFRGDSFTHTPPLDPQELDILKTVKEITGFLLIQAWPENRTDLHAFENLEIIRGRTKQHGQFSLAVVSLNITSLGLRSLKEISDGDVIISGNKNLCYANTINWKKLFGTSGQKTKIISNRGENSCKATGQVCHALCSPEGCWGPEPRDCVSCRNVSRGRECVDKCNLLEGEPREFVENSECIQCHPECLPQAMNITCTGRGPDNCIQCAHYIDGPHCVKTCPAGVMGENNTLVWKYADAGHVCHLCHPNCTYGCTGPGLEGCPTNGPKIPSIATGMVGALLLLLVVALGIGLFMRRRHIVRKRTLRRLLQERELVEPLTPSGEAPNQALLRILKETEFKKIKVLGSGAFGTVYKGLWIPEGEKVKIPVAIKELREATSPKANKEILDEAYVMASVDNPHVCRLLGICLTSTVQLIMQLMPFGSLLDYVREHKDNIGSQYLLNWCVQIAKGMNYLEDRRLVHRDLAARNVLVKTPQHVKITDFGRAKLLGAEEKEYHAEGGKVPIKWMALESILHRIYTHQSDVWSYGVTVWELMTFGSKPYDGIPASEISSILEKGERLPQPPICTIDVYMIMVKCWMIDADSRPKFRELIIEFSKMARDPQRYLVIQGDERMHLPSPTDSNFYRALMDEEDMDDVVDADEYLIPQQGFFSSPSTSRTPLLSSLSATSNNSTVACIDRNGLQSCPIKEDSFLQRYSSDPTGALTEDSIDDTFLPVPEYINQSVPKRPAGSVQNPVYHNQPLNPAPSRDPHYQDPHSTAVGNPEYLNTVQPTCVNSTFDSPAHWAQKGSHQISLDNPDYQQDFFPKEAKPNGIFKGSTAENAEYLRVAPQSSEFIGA
T2 sequence (P00533 25-1210 T790M/L858R): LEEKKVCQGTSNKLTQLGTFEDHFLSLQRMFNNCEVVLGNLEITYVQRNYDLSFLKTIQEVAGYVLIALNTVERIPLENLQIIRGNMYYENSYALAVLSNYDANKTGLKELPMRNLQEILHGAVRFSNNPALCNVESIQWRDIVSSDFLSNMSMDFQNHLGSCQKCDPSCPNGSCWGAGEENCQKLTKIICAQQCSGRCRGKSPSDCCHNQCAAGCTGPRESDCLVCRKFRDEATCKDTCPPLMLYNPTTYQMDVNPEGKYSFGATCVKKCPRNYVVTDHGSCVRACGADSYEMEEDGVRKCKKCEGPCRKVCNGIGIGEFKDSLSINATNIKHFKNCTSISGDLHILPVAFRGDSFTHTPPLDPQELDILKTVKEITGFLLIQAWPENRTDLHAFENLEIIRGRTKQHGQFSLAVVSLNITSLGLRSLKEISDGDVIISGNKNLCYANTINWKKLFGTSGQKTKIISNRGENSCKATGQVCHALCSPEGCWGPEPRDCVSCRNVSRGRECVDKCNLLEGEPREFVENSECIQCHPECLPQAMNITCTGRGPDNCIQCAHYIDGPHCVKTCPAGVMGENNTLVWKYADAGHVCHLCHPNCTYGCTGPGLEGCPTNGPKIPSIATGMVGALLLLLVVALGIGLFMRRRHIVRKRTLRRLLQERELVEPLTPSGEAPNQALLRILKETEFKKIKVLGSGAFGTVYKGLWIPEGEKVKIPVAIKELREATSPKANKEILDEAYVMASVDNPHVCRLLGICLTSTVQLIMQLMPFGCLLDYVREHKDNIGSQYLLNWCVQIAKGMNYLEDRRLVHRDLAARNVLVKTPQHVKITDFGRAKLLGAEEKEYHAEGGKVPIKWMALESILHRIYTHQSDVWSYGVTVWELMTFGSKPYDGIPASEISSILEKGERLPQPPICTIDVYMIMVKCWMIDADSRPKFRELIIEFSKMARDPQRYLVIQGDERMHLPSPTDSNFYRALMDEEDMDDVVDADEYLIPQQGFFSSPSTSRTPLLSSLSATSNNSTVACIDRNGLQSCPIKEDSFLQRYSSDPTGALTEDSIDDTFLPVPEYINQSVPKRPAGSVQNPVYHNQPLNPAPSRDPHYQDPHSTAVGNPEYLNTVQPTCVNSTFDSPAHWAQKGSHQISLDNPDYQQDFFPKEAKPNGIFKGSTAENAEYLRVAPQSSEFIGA

| Structure (SMILES) | DC50 [1] [nM] | Dmax [2] [%] | DC50 [2] [nM] | DC50 [3] [nM] | Dmax [3] [%] | DC50 [4] [nM] | Dmax [4] [%] | DTC Dmax (%) [1] [%] |
| --- | --- | --- | --- | --- | --- | --- | --- | --- |
| CCc1cc(Nc2ncc(Br)c(Nc3ccc4nccnc4c3P(C)(C)=O)n2)c(OC)cc1N1CCC(N2CCN(C[C@H]3CCN(c4ccc(C5CCC(=O)NC5=O)cc4)C3)CC2)CC1 (stereo partly drawn) [Example 220, 3-(4-((R)-3-((4-(1-(4-((5-bromo-4-((5-(dimethylphosphoryl)quinoxalin-6-yl)amino)pyrimidin-2-yl)amino)-2-ethyl-5-methoxyphenyl)piperidin-4-yl)piperazin-1-yl)methyl)pyrrolidin-1-yl)phenyl)piperidine-2,6-dione] | 18.2 | 88.8 | 43.2 | 8.8 | 85.6 | 5.1 | 77.7 | 86 |
| CCc1cc(Nc2ncc(Br)c(Nc3ccc4nccnc4c3P(C)(C)=O)n2)c(OC)cc1N1CCC(N2CCN(CCc3ccc(C4CCC(=O)NC4=O)cn3)CC2)CC1 (centres unmarked) [Example 13, 3-(6-(2-(4-(1-(4-((5-bromo-4-((5-(dimethylphosphoryl)quinoxalin-6-yl)amino)pyrimidin-2-yl)amino)-2-ethyl-5-methoxyphenyl)piperidin-4-yl)piperazin-1-yl)ethyl)pyridin-3-yl)piperidine-2,6-dione] |  |  |  | > 10000 | 42.8 | 9.48 | 78.9 |  |
| CCc1cc(Nc2ncc(Br)c(Nc3ccc4nccnc4c3P(C)(C)=O)n2)c(OC)cc1N1CCC(N2CCN(CCc3cc(F)c(C4CCC(=O)NC4=O)c(F)c3)CC2)CC1 (centres unmarked) [Example 11, 3-(4-(2-(4-(1-(4-((5-bromo-4-((5-(dimethylphosphoryl)quinoxalin-6-yl)amino)pyrimidin-2-yl)amino)-2-ethyl-5-methoxyphenyl)piperidin-4-yl)piperazin-1-yl)ethyl)-2,6-difluorophenyl)piperidine-2,6-dione] |  | 91.9 |  | 5.41 | 97.4 | 2.84 | 86.4 |  |
| COc1cc(N2CCC(N3CCN(CCCC4CN(c5ccc6c(c5)C(=O)N(C5CCC(=O)NC5=O)C6=O)C4)CC3)CC2)ccc1Nc1ncc(Cl)c(Nc2ccccc2P(C)(C)=O)n1 (centres unmarked) [Example 118, 5-(3-(3-(4-(1-(4-((5-chloro-4-((2-(dimethylphosphoryl)phenyl)amino)pyrimidin-2-yl)amino)-3-methoxyphenyl)piperidin-4-yl)piperazin-1-yl)propyl)azetidin-1-yl)-2-(2,6-dioxopiperidin-3-yl)isoindoline-1,3-dione] |  |  |  | 24.7 | 82.4 | 22.7 | 76 |  |
| COc1cc(N2CCC(N3CCN(CCc4ccc(C5CCC(=O)NC5=O)cc4)CC3)CC2)ccc1Nc1ncc(Cl)c(Nc2ccccc2P(C)(C)=O)n1 (centres unmarked) [Example 104, 3-(4-(2-(4-(1-(4-((5-chloro-4-((2-(dimethylphosphoryl)phenyl)amino)pyrimidin-2-yl)amino)-3-methoxyphenyl)piperidin-4-yl)piperazin-1-yl)ethyl)phenyl)piperidine-2,6-dione] |  |  |  | 5.89 | 74.7 | 17.7 | 83.4 |  |
| CCc1cc(Nc2ncc(Br)c(Nc3ccc4nccnc4c3P(C)(C)=O)n2)c(OC)cc1N1CCC(N2CCN(CCC3CCN(c4ccc(N5CCC(=O)NC5=O)cc4)CC3)CC2)CC1 [Example 55, 1-(4-(4-(2-(4-(1-(4-((5-bromo-4-((5-(dimethylphosphoryl)quinoxalin-6-yl)amino)pyrimidin-2-yl)amino)-2-ethyl-5-methoxyphenyl)piperidin-4-yl)piperazin-1-yl)ethyl)piperidin-1-yl)phenyl)dihydropyrimidine-2,4(1H,3H)-dione] |  |  |  | > 10000 | 18.7 | 313 | 56.2 |  |
| COc1cc(N2CCC(N3CCN(CCC4CCN(c5ccc(C6CCC(=O)NC6=O)cc5)CC4)CC3)CC2)ccc1Nc1ncc(Cl)c(Nc2ccccc2P(C)(C)=O)n1 (centres unmarked) [Example 106, 3-(4-(4-(2-(4-(1-(4-((5-chloro-4-((2-(dimethylphosphoryl)phenyl)amino)pyrimidin-2-yl)amino)-3-methoxyphenyl)piperidin-4-yl)piperazin-1-yl)ethyl)piperidin-1-yl)phenyl)piperidine-2,6-dione] |  |  |  | 8.32 | 63 | 7.06 | 63.2 |  |
| COc1cc(N2CCN(C3CCN(CCc4ccc(C5CCC(=O)NC5=O)cc4)CC3)CC2)ccc1Nc1ncc(Cl)c(Nc2ccccc2N(C)S(C)(=O)=O)n1 (centres unmarked) [Example 120, N-(2-((5-chloro-2-((4-(4-(1-(4-(2,6-dioxopiperidin-3-yl)phenethyl)piperidin-4-yl)piperazin-1-yl)-2-methoxyphenyl)amino)pyrimidin-4-yl)amino)phenyl)-N-methylmethanesulfonamide hydrochloride] |  |  |  | 5.22 | 91.6 | 14.2 | 86.4 |  |
| COc1cc(N2CCC(N(C)CC3CCN(c4ccc(N5CCC(=O)NC5=O)c(C)c4)CC3)CC2)c(C)cc1Nc1ncc(Br)c(Nc2ccc3nccnc3c2P(C)(C)=O)n1 [Example 83, 1-(4-(4-(((1-(4-((5-bromo-4-((5-(dimethylphosphoryl)quinoxalin-6-yl)amino)pyrimidin-2-yl)amino)-5-methoxy-2-methylphenyl)piperidin-4-yl)(methyl)amino)methyl)piperidin-1-yl)-2-methylphenyl)dihydropyrimidine-2,4(1H,3H)-dione] |  |  |  | > 10000 | 14.7 | 20.3 | 74.2 |  |

These reach a lower DC50 [3]. Values come first.

| DC50 [1] [nM] | Dmax [2] [%] | DC50 [2] [nM] | DC50 [3] [nM] | Dmax [3] [%] | DC50 [4] [nM] | Dmax [4] [%] | Structure (SMILES) | DTC Dmax (%) [1] [%] |
| --- | --- | --- | --- | --- | --- | --- | --- | --- |
|  |  |  | 3.9 | 88.5 | 5.45 | 78.5 | CCc1cc(Nc2ncc(Br)c(Nc3ccc4nccnc4c3P(C)(C)=O)n2)c(OC)cc1N1CCC(N2CCN(CCC3CN(c4ccc5c(c4)C(=O)N(C4CCC(=O)NC4=O)C5=O)C3)CC2)CC1 (centres unmarked) [Example 58, 5-(3-(2-(4-(1-(4-((5-bromo-4-((5-(dimethylphosphoryl)quinoxalin-6-yl)amino)pyrimidin-2-yl)amino)-2-ethyl-5-methoxyphenyl)piperidin-4-yl)piperazin-1-yl)ethyl)azetidin-1-yl)-2-(2,6-dioxopiperidin-3-yl)isoindoline-1,3-dione] |  |
| 5.62 | 83.4 | 17.3 | 3.27 | 90.2 | 2.87 | 78.5 | CCc1cc(Nc2ncc(Br)c(Nc3ccc4nccnc4c3P(C)(C)=O)n2)c(OC)cc1N1CCC(N2CCN(C(=O)[C@@H]3CCN(c4cc(F)c(C5CCC(=O)NC5=O)c(F)c4)C3)CC2)CC1 (stereo partly drawn) [Example 255, 3-(4-((R)-3-(4-(1-(4-((5-bromo-4-((5-(dimethylphosphoryl)quinoxalin-6-yl)amino)pyrimidin-2-yl)amino)-2-ethyl-5-methoxyphenyl)piperidin-4-yl)piperazine-1-carbonyl)pyrrolidin-1-yl)-2,6-difluorophenyl)piperidine-2,6-dione] | 96.33 |
| 4.85 | 85.4 | 1.72 | 3.12 | 85.8 | 2.06 | 75.7 | CCc1cc(Nc2ncc(Br)c(Nc3ccc4nccnc4c3P(C)(C)=O)n2)c(OC)cc1N1CCC(N2CCN(C(=O)C3CN(c4ccc5c(c4)C(=O)N(C4CCC(=O)NC4=O)C5=O)C3)CC2)CC1 (centres unmarked) [Example 64, 5-(3-(4-(1-(4-((5-bromo-4-((5-(dimethylphosphoryl)quinoxalin-6-yl)amino)pyrimidin-2-yl)amino)-2-ethyl-5-methoxyphenyl)piperidin-4-yl)piperazine-1-carbonyl)azetidin-1-yl)-2-(2,6-dioxopiperidin-3-yl)isoindoline-1,3-dione] | 90.07 |
| 22.4 | 86.4 | 47 | 1.61 | 62.4 | 4.85 | 81.2 | CCc1cc(Nc2ncc(Br)c(Nc3ccc4nccnc4c3P(C)(C)=O)n2)c(OC)cc1N1CCC(N2CCN(CC3CCN(c4ccc(C5CCC(=O)NC5=O)cc4)C3)CC2)CC1 (centres unmarked) [Example 168, 3-(4-(3-((4-(1-(4-((5-bromo-4-((5-(dimethylphosphoryl)quinoxalin-6-yl)amino)pyrimidin-2-yl)amino)-2-ethyl-5-methoxyphenyl)piperidin-4-yl)piperazin-1-yl)methyl)pyrrolidin-1-yl)phenyl)piperidine-2,6-dione] | 88.5 |
| 1.94 | 87.5 | 4.8 | 0.65 | 69.6 | 3.21 | 65.9 | CCc1cc(Nc2ncc(Br)c(Nc3ccc4nccnc4c3P(C)(C)=O)n2)c(OC)cc1N1CCC(N2CCN(C(=O)C3CCN(c4ccc5c(c4)C(C)(C)C(=O)N5C4CCC(=O)NC4=O)CC3)CC2)CC1 (centres unmarked) [Example 219, 3-(5-(4-(4-(1-(4-((5-bromo-4-((5-(dimethylphosphoryl)quinoxalin-6-yl)amino)pyrimidin-2-yl)amino)-2-ethyl-5-methoxyphenyl)piperidin-4-yl)piperazine-1-carbonyl)piperidin-1-yl)-3,3-dimethyl-2-oxoindolin-1-yl)piperidine-2,6-dione] | 93 |
